The values below are quoted from earlier work in patent US10265547B2, “Internal ultrasound gel” (SmileSonica Inc., priority 2012, dated 2019).

The conditions of data set [1]: average adult of 70 kg.
For the next data set, the system named is Streptococcus mutans. Particulars: xylitol in the range of 0.1% to 5%.
The next data set deals with Streptococcus pneumonia. The note with it: nasopharyngeal flora, Kontiokari et al. 1995.
In a further data set the test system is clostridium butyricum. Particulars: Makinen and Soderling 1981.
The subject of a further data set is lactobacillus bulgaricus. Particulars: Makinen and Soderling 1981.
Another data set has as its system saccharomyces cerevisiae. The note with it: Makinen and Soderling 1981.
Another data set deals with Escherichia coli. The note with it: Makinen and Soderling 1981.
For a further data set, the system named is salmonella typhi. Particulars: Makinen and Soderling 1981.

The structures appear in SMILES notation.

With `C/C=C/C=C/C(=O)[O-].[K+]` [potassium sorbate], the “acceptable daily ingestion intake” value in data set [1] is recorded as 875 mg daily.

For `OC[C@@H](O)[C@H](O)[C@@H](O)CO` [xylitol], the “reduction of oral bacterial flora” value in the data set on Streptococcus mutans is “reduce oral bacterial flora”. The growth inhibition entry in the data set with Streptococcus pneumonia, in the data set with clostridium butyricum, in the data set on lactobacillus bulgaricus, with saccharomyces cerevisiae, in the data set on Escherichia coli and with salmonella typhi was “inhibiting the growth” throughout.
